These results are taken from patent US7750006B2, “Phthalazinone derivatives” (Kudos Pharmaceuticals Limited, priority 2000, dated 2010).

The subject of this assay is HeLa cells. Briefly: Dose Enhancing Factor: cell growth inhibition with bleomycin, SRB assay. The format is cell-based. The conditions noted are these: test compound 25 μM, bleomycin 0.5 μg/ml. As for the experimental part:
The Dose Enhancing Factor (DEF) is a ratio of the enhancement of cell growth inhibition elicited by the test compound in the presence of bleomycin compared to bleomycin alone. […] Bleomycin was used at a concentration of 0.5 μg/ml. The DEF was calculated from the formula:
[formula] where GrowthTC is cell growth in presence of the test compound; GrowthControl is cell growth of control cells; Growthbleo is cell growth in presence of bleomycin; and Growth(bleo+TC) is cell growth in presence of bleomycin and the test compound.
2,000 HeLa cells were seeded into each well of a flat-bottomed 96-well microtiter plate in a volume of 100 μl and incubated for 6 hours at 37° C. […] Cells were allowed to grow for a further 1 hour before the addition of bleomycin to either untreated cells or test compound treated cells. Cells untreated with either bleomycin or test compound were used as a control. Cells treated with test compound alone were used to assess the growth inhibition by the test compound.
Cells were left for a further 16 hours before replacing the media and allowing the cells to grow for a further 72 hours at 37° C. The media was then removed and the cells fixed with 100 μl of ice cold 10% (w/v) trichloroacetic acid. The plates were incubated at 4° C. for 20 minutes and then washed four times with water. Each well of cells was then stained with 100 μl of 0.4% (w/v) SRB in 1% acetic acid for 20 minutes before washing four times with 1% acetic acid. Plates were then dried for 2 hours at room temperature. The dye from the stained cells was solubilized by the addition of 100 μl of 10 mM Tris Base into each well.

Regarding `O=c1[nH]nc(CSc2ccc(Cl)cc2)c2ccccc12` [Compound 90], the “DEF (Dose Enhancing Factor)” value amounted to 1.8.
As for `O=c1[nH]nc(CSc2ccccn2)c2ccccc12` [Compound 91], the “DEF (Dose Enhancing Factor)” value is 1.4.
Turning to `Cn1ccnc1SCc1n[nH]c(=O)c2ccccc12` [Compound 92], the “DEF (Dose Enhancing Factor)” value is 1.5.
As for `COC(=O)CSCc1n[nH]c(=O)c2ccccc12` [Compound 93], the “DEF (Dose Enhancing Factor)” value is given as 1.3.
With `O=c1[nH]nc(Cc2ccc(Cl)cc2)c2ccccc12` [Compound 126], the “DEF (Dose Enhancing Factor)” value is 1.9.
As to `O=c1[nH]nc(Cc2ccc(Br)cc2)c2ccccc12` [Compound 129], the “DEF (Dose Enhancing Factor)” value is 1.3.
Consider `O=c1[nH]nc(Cc2cccc3ccccc23)c2ccccc12` [Compound 131], for which the “DEF (Dose Enhancing Factor)” value came to 1.3.
As for `O=c1[nH]nc(Cc2ccc(F)cc2)c2ccccc12` [Compound 132], the “DEF (Dose Enhancing Factor)” value worked out at 2.3.
Take `COc1ccc(Cc2n[nH]c(=O)c3ccccc23)cc1` [Compound 138]: the “DEF (Dose Enhancing Factor)” value is recorded as 1.3.
With `Cc1ccc(Cc2n[nH]c(=O)c3ccccc23)cc1` [Compound 139], the “DEF (Dose Enhancing Factor)” value is 1.4.
Consider `O=c1[nH]nc(Cc2ccccc2F)c2ccccc12` [Compound 141], for which the “DEF (Dose Enhancing Factor)” value is listed as 1.6.
In the case of `O=c1[nH]nc(Cc2ccccc2)c2ccccc12` [Compound 145], the “DEF (Dose Enhancing Factor)” value is listed as 1.8.
Next, `O=c1[nH]nc(Cc2ccc(I)cc2)c2ccccc12` [Compound 151]: 1.9; `Nc1cccc(Cc2n[nH]c(=O)c3ccccc23)c1` [Compound 160]: 1.5.
As for `Cc1ccccc1Cc1n[nH]c(=O)c2ccccc12` [Compound 163], the figure is 1.3; as for `O=c1[nH]nc(Cc2ccc(O)cc2)c2ccccc12` [Compound 164], 1.3; as for `O=c1[nH]nc(Cc2cccc(O)c2)c2ccccc12` [Compound 165], 1.3.
Next, `CC(=O)Nc1ccc(Cc2n[nH]c(=O)c3ccccc23)cc1` [Compound 166]: 1.4.
As for `O=C(Nc1cccc(Cc2n[nH]c(=O)c3ccccc23)c1)c1cccs1` [Compound 169], the “DEF (Dose Enhancing Factor)” value was 1.5.
Consider `O=C(Nc1cccc(Cc2n[nH]c(=O)c3ccccc23)c1)c1ccc(F)cc1` [Compound 170], for which the “DEF (Dose Enhancing Factor)” value was determined as 2.6.
For `O=C(Nc1cccc(Cc2n[nH]c(=O)c3ccccc23)c1)c1ccccc1` [Compound 171], the “DEF (Dose Enhancing Factor)” value was found to be 1.8.
As for `CC(=O)Nc1cccc(Cc2n[nH]c(=O)c3ccccc23)c1` [Compound 172], the figure is 1.4; as for `O=c1[nH]nc(Cc2ccncc2)c2ccccc12` [Compound 177], 1.2; as for `O=c1[nH]nc(Cc2cccnc2)c2ccccc12` [Compound 178], 1.9.
Take `CC(=O)Oc1cccc(Cc2n[nH]c(=O)c3ccccc23)c1` [Compound 179]: the “DEF (Dose Enhancing Factor)” value is listed as 1.4.
Turning to `O=c1[nH]nc(Cc2ccc3c(c2)OCO3)c2ccccc12` [Compound 180], the “DEF (Dose Enhancing Factor)” value amounted to 1.2.
As to `O=c1[nH]nc(Cc2cccc(Cl)c2)c2ccccc12` [Compound 186], the “DEF (Dose Enhancing Factor)” value worked out at 1.6.
Turning to `O=c1[nH]nc(Cc2cccc(C(F)(F)F)c2)c2ccccc12` [Compound 191], the “DEF (Dose Enhancing Factor)” value stood at 1.5.
On to `O=c1[nH]nc(Cc2cccc(F)c2)c2ccccc12` [Compound 192], for which the “DEF (Dose Enhancing Factor)” value was 1.4.
Next, `O=c1[nH]nc(Cc2cccc(Oc3ccccc3)c2)c2ccccc12` [Compound 193]: 2.2; `O=c1[nH]nc(Cc2cccc(OCc3ccccc3)c2)c2ccccc12` [Compound 194]: 1.6.
Take `Nc1cc(Cc2n[nH]c(=O)c3ccccc23)ccc1N1CCSCC1` [Compound 198]: the “DEF (Dose Enhancing Factor)” value came out at 2.3.
As for `O=c1[nH]nc(Cc2ccc(N3CCCC3)c([N+](=O)[O-])c2)c2ccccc12` [Compound 204], the figure is 1.6.
Next, `O=C(O)COCC(=O)Nc1cc(Cc2n[nH]c(=O)c3ccccc23)ccc1N1CCOCC1` [Compound 206]: 1.2; `O=c1[nH]nc(Cc2cccc(Br)c2)c2ccccc12` [Compound 211]: 1.4.
For `O=C(Oc1cccc(Cc2n[nH]c(=O)c3ccccc23)c1)c1ccc(F)cc1` [Compound 212], the “DEF (Dose Enhancing Factor)” value is recorded as 2.3.
For the molecule `CC(=O)Oc1ccc(Cc2n[nH]c(=O)c3ccccc23)cc1` [Compound 213], the “DEF (Dose Enhancing Factor)” value is 1.3.
`O=C(Nc1ccccc1)Nc1cccc(Cc2n[nH]c(=O)c3ccccc23)c1` [Compound 215]: the “DEF (Dose Enhancing Factor)” value was found to be 1.4.
With `O=C(Nc1ccc(F)cc1)Nc1cccc(Cc2n[nH]c(=O)c3ccccc23)c1` [Compound 216], the “DEF (Dose Enhancing Factor)” value is recorded as 1.3.
As for `COc1cc(Cc2n[nH]c(=O)c3ccccc23)ccc1OCc1ccccc1` [Compound 222], the figure is 1.2; as for `O=C(Nc1ccc(Cc2n[nH]c(=O)c3ccccc23)cc1)c1ccc(F)cc1` [Compound 227], 2.6; as for `O=c1[nH]nc(Cc2ccccc2F)c2ccccc12` [Compound 248], 1.2.
